In brackets after ≈: the same amount, converted by molar mass.
Key:
electric eel AChE = electric eel AChE (Electrophorus electricus, UniProt O42275); assay: biochemical; format: biochemical; conditions: mean ± S.D.; for IC50: read-out: AChEI IC50 (converted)
Description: According to the Ellman et al. published spectrophotometric method of electric eel AChE [47], AChEI activity was measured. Acetylthiocholine iodide (ATCI) was used as the reaction’s substrate, and the antiacetylcholinesterase activity was measured using 5,5’-Dithiobis-(2-nitrobenzoic acid) (DTNB).

L. major amastigotes = assay: Antileishmanial assay, amastigotes; format: cell-based, Leishmania major; conditions: mean ± S.D.; for IC50: Leishmania major, read-out: Amastigote IC50
Description: (§1) This assay was carried out according to the methods mentioned in our previously published article. L. major promastigotes were isolated locally from an indoor patient in 2016, liquid nitrogen was used for the preservation of the parasites, and BALB/c mice were used for the maintenance of the parasites and production of L. major amastigotes. Phenol red-free RPMI 1640 medium (Invitrogen, USA) with 10% FBS was used for the culture and in vitro evaluation, while amphotericin B (AmB) was used as reference drug.

[1] = DPPH radical scavenging activity; conditions: antiradical scavenging; mean ± S.D.
Description: (§2) Three methods were used for the assessing antioxidant properties of the selected compounds, which are 2.2-diphenyl-1-picrylhydrazyl (DPPH), 2.2’-azino-bis (3-ethylbenzothiazoline-6-sulphonic acid) (ABTS) radicals scavenging, and β-carotene linoleic acid bleaching assay. […] The control compound was butylated hydroxytoluene (BHT), which is a potent antioxidant.
Briefly, various amounts of produced compounds were diluted with ultrapure water after being dissolved in dimethylsulfoxide (DMSO)/water (1/9; v/v) (1, 0.5, 0.250, 0.125, 0.0625, 0.03125 mg mL^−1). The samples were then combined with […] of a 4% (w/v) solution of the DPPH radical in ethanol. The combination was incubated for 30 min. at room temperature and in the dark. Spectrophotometric analysis was used to calculate the scavenging capacity by comparing the decrease in absorbance at 517 nm to a blank.
(§3) All the assays used for antioxidant determination (DPPH, ABTS, and β-carotene bleaching assay) were performed simultaneously three times in the same conditions. The results obtained in µM mL^−1 average of the three experiments.

Vero cell = assay: In vitro cytotoxicity assay, MTT; format: cell-based; conditions: mean ± S.D.
Description: (§4) MTT colorimetric technique was carried out for cytotoxicity evaluation according to the methods mentioned in our previously published article. An amount of 96 well plates with complete were used for the culture of the cells. FLUOstar OPTIMA spectrophotometer was applied for colorimetric analysis and in vitro evaluation.

[2] = β-Carotene linoleic acid bleaching assay; conditions: β-carotene bleaching test; mean ± S.D.
Description: as §2
β-Carotene bleaching test was conducted following the method described by Pratt’s.
as §3

TyrE = TyrE (Agaricus bisporus, UniProt C7FF04); format: biochemical
[3] = tested on: T. gondii tachyzoites RH strain; assay: Antitoxoplasmal assay; format: cell-based, Toxoplasma gondii; conditions: mean ± S.D.; for IC50: Toxoplasma gondii
Description: This assay was carried out according to the methods mentioned in our previously published article. Vero cells line (ATCC® CCL81™, USA) were used for the serial passage and cultivation of T. gondii tachyzoites RH strain, complete RPMI 1640 medium with heat-inactivated 10% FBS was used for the culture and in vitro evaluation, while atovaquone (ATO) was used as reference drug. The results were expressed in IC50 of three independent readings, followed by the selectivity index (SI) calculation by dividing CC50 over IC50 of the same compound [56].

L. major promastigotes = assay: Antileishmanial assay, promastigotes; format: cell-based, Leishmania major; conditions: mean ± S.D.; for IC50: Leishmania major
Description: as §1

[4] = ABTS radical scavenging assay; conditions: antiradical scavenging; mean ± S.D.
Description: as §2
ABTS radical scavenging activity was conducted by referring to the method of Re et al..
as §3

[5] = tested on: colon carcinoma cells (HCT-116); assay: In vitro anticancer proliferation (cytotoxicity) assay; format: cell-based, human; conditions: for IC50: Homo sapiens, HCT-116, mean ± S.D.
Description: (§5) The selected compound was investigated for its cytotoxic properties against HCT-116 and HepG-2 (cancer cell lines of ATCC, Rockville, MD, USA). Vinblastine was applied as reference drug. The assay was conducted according to the methods described by Mossman and our recently published data.

[6] = tested on: hepatocellular carcinoma cell lines (HepG-2); assay: as above; format: cell-based, human; conditions: hepatocellular carcinoma cells, mean ± S.D.; for IC50: Homo sapiens, HepG2
Description: as §5

[7] = In vitro cytotoxicity assay, MTT; format: cell-based; conditions: African green monkey, Vero cells, mean ± S.D., read-out: CC50 Toxicity (Vero Cell)
Description: as §4

Chain of electric eel AChE (O42275 24-633): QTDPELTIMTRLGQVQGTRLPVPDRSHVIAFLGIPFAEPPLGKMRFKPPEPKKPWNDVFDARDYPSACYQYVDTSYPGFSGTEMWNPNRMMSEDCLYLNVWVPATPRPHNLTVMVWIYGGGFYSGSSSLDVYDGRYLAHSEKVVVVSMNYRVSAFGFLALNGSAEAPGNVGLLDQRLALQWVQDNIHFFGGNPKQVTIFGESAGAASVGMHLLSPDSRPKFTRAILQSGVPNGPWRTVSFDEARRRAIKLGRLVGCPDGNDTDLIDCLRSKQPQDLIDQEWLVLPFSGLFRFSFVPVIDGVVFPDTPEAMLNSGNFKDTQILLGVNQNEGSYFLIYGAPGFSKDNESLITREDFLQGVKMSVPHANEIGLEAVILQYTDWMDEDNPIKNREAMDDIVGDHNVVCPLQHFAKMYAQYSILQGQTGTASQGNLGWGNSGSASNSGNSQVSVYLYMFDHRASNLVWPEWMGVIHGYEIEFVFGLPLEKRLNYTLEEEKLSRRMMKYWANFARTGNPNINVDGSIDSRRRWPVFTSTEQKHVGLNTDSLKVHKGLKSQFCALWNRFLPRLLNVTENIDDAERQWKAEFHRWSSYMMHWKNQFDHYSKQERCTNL
Chain of TyrE (C7FF04 1-392): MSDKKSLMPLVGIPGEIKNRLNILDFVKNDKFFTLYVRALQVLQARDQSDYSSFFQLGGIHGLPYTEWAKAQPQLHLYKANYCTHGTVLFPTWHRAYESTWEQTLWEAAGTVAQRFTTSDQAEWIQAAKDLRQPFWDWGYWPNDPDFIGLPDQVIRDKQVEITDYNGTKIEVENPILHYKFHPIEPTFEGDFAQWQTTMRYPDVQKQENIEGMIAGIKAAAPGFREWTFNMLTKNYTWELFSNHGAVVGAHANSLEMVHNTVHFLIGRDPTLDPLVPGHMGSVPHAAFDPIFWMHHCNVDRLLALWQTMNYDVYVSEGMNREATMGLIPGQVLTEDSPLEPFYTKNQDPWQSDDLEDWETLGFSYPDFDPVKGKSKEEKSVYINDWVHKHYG

| Compound | AChEI IC50 (electric eel AChE) [µM mL^−1] | Amastigote IC50 (L. major amastigotes) [µM mL^−1] | DPPH IC50 [1] [µM mL^−1] | CC50 Toxicity (Vero Cell) (Vero cell) [µM mL^−1] | β-Carotene IC50 [2] [µM mL^−1] | TyrEI IC50 (TyrE) [µM mL^−1] | Toxoplasma IC50 [3] [µM mL^−1] | Promastigotes IC50 (L. major promastigotes) [µM mL^−1] | ABTS IC50 [4] [µM mL^−1] | IC50 HCT-116 ([5]; mean ± S.D.) [µM mL^−1] | IC50 HepG-2 [6] [µM mL^−1] | IC50 (electric eel AChE) [µM] | IC50 (L. major amastigotes) [µg/mL] | CC50 [7] [µg/mL] | IC50 [3] [µg/mL] | IC50 (L. major promastigotes) [µg/mL] | IC50 [5] [µg/mL] | IC50 [6] [µg/mL] |
| --- | --- | --- | --- | --- | --- | --- | --- | --- | --- | --- | --- | --- | --- | --- | --- | --- | --- | --- |
| 5,6-dimethyl-1,3-bis(2,3,4,5,6-pentamethylbenzyl)-1H-benzo[d]imidazol-3-ium bromide [Compound 2a] | 18.38 ± 2.7 | 1.1 ± 0.1 | 58.27 ± 7.4 | 1.2 ± 0.2 | 395.75 ± 51.6 | 45.05 ± 7.3 | 8.4 ± 1.0 | 3.2 ± 0.5 | 39.12 ± 5.9 | 7.76 ± 1.1 | 11.75 ± 2.1 | – | – | – | – | – | – | – |
| Cc1cc(C(C)(C)C)c(O)c(C(C)(C)C)c1 [BHT, butylated hydroxytoluene, reference compound] | – | – | 31.55 ± 4.8 | – | 89.55 ± 13.3 | – | – | – | 17.41 ± 2.9 | – | – | – | – | – | – | – | – | – |
| Cc1cc(C)c(Cn2c[n+](Cc3c(C)cc(C)cc3C)c3cc(C)c(C)cc32)c(C)c1.[Br-] [Compound 2b, 5,6-dimethyl-1,3-bis(2,4,6-trimethylbenzyl)-1H-benzo[d]imidazol-3-ium bromide] | – | – | 63.45 ± 10.1 | – | 325.55 ± 48.7 | – | – | – | 38.14 ± 4.9 | – | – | 27.3 | 0.3 ± 0.04 | 1.1 ± 0.1 | 3.7 ± 0.5 | 2.2 ± 0.3 | 13.6 ± 2 | 17.4 ± 2.7 |
| Cc1ccc(C[n+]2cn(Cc3ccc(C(C)(C)C)cc3)c3cc(C)c(C)cc32)cc1 [Compound 2c, 5,6-dimethyl-1,3-((4-(tert-butyl)-4-methyl-benzyl)-1H-benzo[d]imidazol-3-ium bromide] | – | – | 70.23 ± 12.0 | – | 348.70 ± 52.1 | – | – | – | 51.27 ± 8.6 | – | – | 51.6 | 1.7 ± 0.2 | 2.9 ± 0.4 | 2.1 ± 0.3 | 5.8 ± 0.9 | 15.4 ± 2.6 | 20.6 ± 3.3 |
| CC[C@]1(O)C[C@@H]2CN(CCc3c([nH]c4ccccc34)[C@@](C(=O)OC)(c3cc4c(cc3OC)N(C)[C@H]3[C@@](O)(C(=O)OC)[C@H](OC(C)=O)[C@]5(CC)C=CCN6CC[C@]43[C@@H]65)C2)C1 [vinblastine, reference compound] | – | – | – | – | – | – | – | – | – | – | – | – | – | – | – | – | 3.83 (≈ 4.72 µM) | 6.05 (≈ 7.46 µM) |
